Test results reported in the NIST ThermoML archive (doi:10.1016/j.fluid.2007.07.029).

Conditions: Liquid, Transpiration method

CCCCCCC(=O)OCC(COC(=O)CCCCCC)(COC(=O)CCCCCC)COC(=O)CCCCCC [pentaerythritol tetraheptanoate]
Conditions	vapor or sublimation pressure [kPa]
373.81 K	2.58e-07
393.48 K	2.61e-06
413.4 K	2.2e-05
433.36 K	0.000131

CCCCCCCCC(=O)OCC(COC(=O)CCCCCCCC)(COC(=O)CCCCCCCC)COC(=O)CCCCCCCC [pentaerythritol tetranonanoate]
Conditions	vapor or sublimation pressure [kPa]
394.55 K	5.57e-08
414.72 K	5.21e-07
435.03 K	3.98e-06
435.11 K	3.97e-06
455.36 K	2.82e-05
476.47 K	0.000174

CCCCC(=O)OCC(COC(=O)CCCC)(COC(=O)CCCC)COC(=O)CCCC [pentaerythritol tetrapentanoate]
Conditions	vapor or sublimation pressure [kPa]
334.02 K	2.55e-07
353.94 K	2.88e-06
373.62 K	2.61e-05
393.34 K	0.000166
413.08 K	0.000935

CCCCC(CC)C(=O)OCC(COC(=O)C(CC)CCCC)(COC(=O)C(CC)CCCC)COC(=O)C(CC)CCCC (stereo not given) [pentaerythritol tetra(2-ethylhexanoate)]
Conditions	vapor or sublimation pressure [kPa]
353.96 K	1.27e-07
363.89 K	3.67e-07
373.81 K	1.07e-06
383.56 K	3.37e-06
393.56 K	8.94e-06
403.44 K	2.37e-05
413.44 K	5.82e-05
423.4 K	0.000133
433.18 K	0.000287
443.17 K	0.000644
